Values quoted from earlier work, collected in article PMC4078388 (EJNMMI Research, 2014).

Test system: INS-1 tumour
Details: Balb/c nude mice, 1 h after injection
Excerpt: One additional challenge when imaging β-cells is the limited amount of overall GLP-1 receptors available which requires the administration of low amounts of peptide with a high specific activity in order to avoid receptor blocking [[13]]. One potential way to further increase the specific activity and therefore reduce the amount of tracer necessary to obtain a clear image is to attach several chelators to the peptide allowing more radioactivity per molecule.

[Lys^40(^68Ga-DOTA)]exendin-3
uptake in INS-1 tumour: 8.9 ± 3.1 %iA/g
uptake in the pancreas: 6.7 ± 1.8 %iA/g
